Earlier results in patent US11160745B2, “Methods and compositions for topical delivery for skin care” (priority 2014, dated 2021).
Read-outs that look alike come from different tables or passages of the source.

Key:
wrinkles around the eyes = settings: for Reduction of the depth of wrinkles: independent study; for Decrease in severity of wrinkles around the eyes: ONV emulsion containing 10% Argireline solution, twice a day
ternary SNARE complex = molecular target: T1, ternary SNARE complex (Homo sapiens, UniProt Q16623); settings: immunoblot with anti-syntaxin mAb
T1 construct: Chromaffin cells were prepared and further separated from erythrocytes and other impurities by centrifugation gradient; endogenous in cells; complex immunoprecipitated
T1 sequence (Q16623 whole entry, one chain of several): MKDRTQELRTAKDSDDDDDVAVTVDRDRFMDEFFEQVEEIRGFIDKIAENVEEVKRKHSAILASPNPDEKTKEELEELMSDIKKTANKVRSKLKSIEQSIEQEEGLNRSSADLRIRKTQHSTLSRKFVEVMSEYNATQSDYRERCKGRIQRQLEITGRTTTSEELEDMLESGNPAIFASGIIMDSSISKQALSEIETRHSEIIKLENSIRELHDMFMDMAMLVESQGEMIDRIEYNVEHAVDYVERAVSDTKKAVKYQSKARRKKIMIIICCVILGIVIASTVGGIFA

chromaffin cells = settings: tritiated noradrenaline/adrenaline, liquid scintillation counting

## Ac-EEMQRR-NH2 [Argireline, (6S,9S,12S,15S,18S,21 S)-21-Acetamido-1-amino-12-(3-amino-3-oxopropyl)-6-carbamoyl-18-(2-carboxyethyl)-9-(3-guanidinopropyl)-1-imino-15-(2-(methylthio)ethyl)-8,11,14,17,20-pentaoxo-2,7,10,13,16,19-hexaazatetracosan-24-oic acid]
Wrinkles around the eyes; after 15 days of treatment
  Reduction of the depth of wrinkles: up to 17%
Wrinkles around the eyes; after 15 days
  Decrease in severity of wrinkles around the eyes: up to 17%
Wrinkles around the eyes; after 30 days
  Decrease in severity of wrinkles around the eyes: up to 27%
Wrinkles around the eyes; following 30 days of treatment
  Reduction of the depth of wrinkles: up to 27%
Ternary SNARE complex
  SNARE complex formation: modulates SNARE complex formation at concentrations in the mM range
Chromaffin cells
  Release of catecholamines (adrenaline and noradrenaline): significant modulation of both neurotransmitters at nM concentrations
